How the values were obtained:
[1] = target: T1, tyrosinase released from B16-F10 cells (Mus musculus, UniProt P11344); test: Inhibition of tyrosinase activity released from B16-F10 cells; format: cell-based, murine; conditions: 24 h incubation, α-MSH, L-DOPA 0.5 mM
T1 construct: endogenous in cells; host or cells: B16-F10 murine melanoma cells (alpha-MSH stimulated), Triton X-100 lysate
Procedure: Inhibition of Tyrosinase Activity Released from B16-F10 Cells
50,000 cells were placed in each well of a 24-well plate (in F10-Ham medium, 1% FBS). After 24 h of culture, the tested compounds were added in fresh medium (DMEM, 1% FBS), with an additional 5 μM of a-melanocorticotropic hormone (a-MSH) in the medium to induce melanogenesis. Three wells on the plate constituted a control sample without the melanogenesis inducer (a-MSH) and without the tested compounds. After 24 hours of incubation under these conditions, the medium was removed and the cells were washed twice with PBS. 100 μL of lysis buffer composed of 90 μL of 50 mM potassium phosphate buffer, 5 μL of 0.1 mM phenylmethylsulfonyl fluoride and 5 μL of 1% Triton X-100 were added to the wells. The plates were placed at −80° C. for 30 minutes. Cell lysates were then centrifuged for 30 min (4° C., 12,000 rpm), and then 80 μL of the supernatant was transferred to 96-well plates. […] After a 30-minute incubation, the absorbance was measured at 475 nm using a microplate reader. The percentage of inhibition of tyrosinase activity was calculated using the formula: [(AC−AT)/Ac]×100, where AC—is the absorbance of the negative control (from wells in which cells were cultured without the tested compounds), AT—is the absorbance of the sample from wells in which cells were cultured in the presence of the test compound.

[2] = system: Balb/c 3T3 murine fibroblast cell line; test: Phototoxicity, neutral red uptake in Balb/c 3T3 fibroblasts; conditions: for PIF (photoirritation factor): ratio of IC50 of unirradiated to irradiated cells; for cytotoxicity towards mouse fibroblasts: with and without UVA exposure
Procedure: d) Phototoxicity Assessment Using the Balb/c 3T3 Murine Fibroblast Cell Line
Balb/c 3T3 cells, which are an immortalized murine fibroblast cell line, were purchased at ATTC and cultured in the medium recommended by the manufacturer (DMEM GlutaMAX, newborn calf serum (BCS), antibiotics). After multiplication, cells were placed in 96-well plates, which were incubated for 24 hours, after which all wells of the plates were washed with 150 μL of balanced salt solution (HBSS). Then, after drying the plates, 100 μL of a solution of the tested compounds in HBSS with 2% FBS was added to each well and incubated for an hour. After this time, some of the plates were irradiated using the Suntest CPS+sunlight simulator from Atlas with appropriate filters cutting off radiation with a wavelength <320 nm (UVA radiation intensity 5 J/cm^2). The second part of the plates was placed in radiation-free conditions for the same period of time. After the exposure time, the liquid was removed from all plates and the wells were washed twice with 150 μL of HBSS, then supplemented with fresh culture medium and incubated for 24 hours in an incubator (37° C., 5% CO2). Viability was assessed in the neutral red uptake test, which is based on the ability of the dye to penetrate only into living cells. Dye uptake was confirmed by absorbance measurement at 540 nm. […] The appropriate coefficients were also calculated: mean phototoxic effect (MPE) and photoirritation factor (PIF). PIF is the ratio of the IC50 values of unirradiated to irradiated cells, while MPE is based on the comparison of concentration-response curves.

[3] = system: human reconstructed epidermis Episkin; test: Skin permeation studies in reconstructed human epidermis Episkin; format: in vitro ADME
Procedure: The tested substance A-111 in a macrogol formulation (2% A-111 in the PEG400+PEG800 base) was applied onto the epidermis in an amount of approximately 10 mg/cm^2 (“finite dose application”) using a sterile inoculation loop. The amount applied was weighed accurately. As a control, a macrogol formulation without the test substance was applied onto the epidermis. The finished experimental plate was incubated at 32° C. At specific time intervals, aliquots of the receptor fluid (0.5 mL) were collected for the analysis and replaced with 0.5 mL of fresh receptor fluid. After 24 h of culture, all of the receptor fluid was collected. The examined tissue was washed with cotton buds soaked in methanol. The donor and receptor compartments were washed with methanol, and the epidermis was separated from the inserts and transferred to methanol. Samples were stored at −20° C. until analysis. The content (concentration) of the tested substance A-111 in the receptor fluid and in individual compartments: on the surface of the epidermis, in the epidermis, in the receptor fluid was determined using measurements in a microplate reader at 281 nm on 96-well plates transmitting ultraviolet radiation.
In order to confirm proper bioavailability, studies of the permeation of compound A-111 from a solution in PEG400 were performed in a model of reconstructed human epidermis. […] The tested substance A-111 was applied onto the epidermis in the form of a 2% PEG400 solution in an amount of 15 μL. The finished experimental plate was incubated at 32° C. At specific time intervals, aliquots of the receptor fluid (0.5 mL) were collected for the analysis and replaced with fresh fluid. After 24 h of culture, all of the receptor fluid was collected. The examined tissue was washed with cotton buds soaked in methanol. The donor and receptor compartments were washed with methanol, and the epidermis was separated from the inserts and transferred to methanol. The content (concentration) of the tested substance A-111 in the acceptor fluid and in individual compartments: on the surface of the epidermis, in the epidermis, in the receptor fluid was determined using measurements in a microplate reader at 281 nm on 96-well plates transmitting ultraviolet radiation.
Permeation studies of the A-111 compound from a cosmetic formulation were performed in a model of reconstructed human epidermis. […] 25 μL of the formulation containing the tested compound A-111 was applied to the epidermis. […] The content (concentration) of the tested substance A-111 in the receptor fluid and in individual compartments: on the surface of the epidermis, in the epidermis, in the receptor fluid was determined using measurements in a microplate reader at 281 nm on 96-well plates transmitting ultraviolet radiation.

T1 sequence (P11344 19-533): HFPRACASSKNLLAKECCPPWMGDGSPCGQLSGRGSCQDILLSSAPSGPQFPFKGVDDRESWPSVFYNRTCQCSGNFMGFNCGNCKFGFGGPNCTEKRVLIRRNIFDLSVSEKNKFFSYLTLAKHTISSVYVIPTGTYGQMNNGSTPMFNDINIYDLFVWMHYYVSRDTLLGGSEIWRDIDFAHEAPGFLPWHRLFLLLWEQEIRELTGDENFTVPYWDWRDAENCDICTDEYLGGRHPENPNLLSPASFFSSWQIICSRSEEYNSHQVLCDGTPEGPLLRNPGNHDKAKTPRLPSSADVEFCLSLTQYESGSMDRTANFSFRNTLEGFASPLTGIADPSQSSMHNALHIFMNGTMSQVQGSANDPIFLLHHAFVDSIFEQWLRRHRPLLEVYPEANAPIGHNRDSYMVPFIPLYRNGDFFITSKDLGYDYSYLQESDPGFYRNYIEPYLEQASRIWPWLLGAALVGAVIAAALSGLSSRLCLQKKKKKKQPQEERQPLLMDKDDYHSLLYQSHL

| Structure (SMILES) | inhibition of tyrosinase released from B16-F10 cells [1] | phototoxic potential [2] | PIF (photoirritation factor) [2] | cytotoxicity towards mouse fibroblasts [2] | epidermal permeation ([3]; 2% A-111 in macrogol formulation (PEG400+PEG800), about 10 mg/cm^2, 24 h) | accumulation in the epidermis ([3]; 2% A-111 in macrogol formulation, 24 h) | epidermal permeation ([3]; 2% PEG400 solution, 15 μL, 24 h) | epidermal permeation ([3]; released from cosmetic formulation, 25 μL, 24 h) |
| --- | --- | --- | --- | --- | --- | --- | --- | --- |
| O=C(/C=C/c1ccc(Cl)cc1)NCCCCCO [Compound A-111, (2E)-3-(4-chlorophenyl)-N-(5-hydroxypentyl)prop-2-enamide] | inhibit the activity of tyrosinase released from B16-F10 cells | do not have phototoxic potential | No phototoxicity | devoid of cytotoxicity | crosses the epidermal barrier | no accumulation | crosses the epidermal barrier | crosses the epidermal barrier |
| O=C(/C=C/c1ccccc1)NCCCCCO [Compound A-133, (2E)-N-(5-hydroxypentyl)-3-phenylprop-2-enamide] |  | do not have phototoxic potential | No phototoxicity | devoid of cytotoxicity |  |  |  |  |
